Assay results reported in PubChem BioAssay AID1259407 (Chemical Carcinogenesis Research Information System (CCRIS), 2018).
The source made the active and inactive calls. No rule for the calls is given here.

Tested on: CCRIS mutagenicity, Ames/micronucleus/aberration tests
Assay: CCRIS mutagenicity studies

Measured: mutagenic call

COP(=O)(OC)C(O)C(Cl)(Cl)Cl (stereo not given)
active: End Point: IN VIVO MICRONUCLEUS, Test System: PREIMPLANTATION EMBRYOS, Species: MOUSE, Strain/Sex: ICR FEMALE/EMBRYO, Route: MATERNAL SINGLE IP DOSE, EMBRYO HARVEST ON G.D 3 active; positive | End Point: In vivo micronucleus, Test System: Micronucleated, binucleated and multinucleated hepatocytes, Species: Mouse, Strain/Sex: ddY/Male, Route: Intravenous active; positive for binucleated and multinucleated cells when agent administered after | Test System: AMES SALMONELLA TYPHIMURIUM, Strain/Indicator: TA100, Metabolic Activation: RAT, LIVER, S-9, NAPHTHOFLAVONE AND PHENOBARBITAL, Method: PREINCUBATION active; positive | Test System: AMES SALMONELLA TYPHIMURIUM, Strain/Indicator: TA100, Metabolic Activation: S-9 MIX, Method: STANDARD PLATE active; positive | Test System: AMES SALMONELLA TYPHIMURIUM, Strain/Indicator: TA104, Metabolic Activation: NONE, Method: PREINCUBATION active; positive | Test System: AMES SALMONELLA TYPHIMURIUM, Strain/Indicator: TA104, Metabolic Activation: RAT, LIVER, S-9, NAPHTHOFLAVONE AND PHENOBARBITAL, Method: PREINCUBATION active; positive | Test System: E. COLI, Strain/Indicator: WP2, Metabolic Activation: NONE, Method: STANDARD PLATE active; positive | Test System: E. COLI, Strain/Indicator: WP2, Metabolic Activation: RAT, LIVER, S-9, AROCLOR 1254, Method: STANDARD PLATE active; positive | Test System: E. COLI, Strain/Indicator: WP2 UVRA, Metabolic Activation: NONE, Method: STANDARD PLATE active; positive | Test System: E. COLI, Strain/Indicator: WP2 UVRA, Metabolic Activation: RAT, LIVER, S-9, AROCLOR 1254, Method: STANDARD PLATE active; positive | Test System: UDS HUMAN CELLS, Strain/Indicator: EUE LINE/THY INCORP, Metabolic Activation: NONE, Method: AUTORADIOGRAPHY active; positive | Test System: UDS HUMAN FIBROBLASTS, Strain/Indicator: THY INCORP (NON-S-PHASE), Metabolic Activation: NONE, Method: LIQUID SCINTILLATION COUNTING active; positive
inactive: Test System: AMES SALMONELLA TYPHIMURIUM, Strain/Indicator: TA97, Metabolic Activation: NONE, Method: SPOT TEST inactive; negative | Test System: AMES SALMONELLA TYPHIMURIUM, Strain/Indicator: TA97, Metabolic Activation: NONE, Method: STANDARD PLATE inactive; negative | Test System: AMES SALMONELLA TYPHIMURIUM, Strain/Indicator: TA97, Metabolic Activation: RAT, LIVER, S-9, NAPHTHOFLAVONE AND PHENOBARBITAL, Method: STANDARD PLATE inactive; negative | Test System: AMES SALMONELLA TYPHIMURIUM, Strain/Indicator: TA97, Metabolic Activation: RAT, LIVER, S-9, PHENOBARBITAL AND NAPHTHOFLAVONE, Method: SPOT TEST inactive; negative | Test System: AMES SALMONELLA TYPHIMURIUM, Strain/Indicator: TA98, Metabolic Activation: HAMSTER, LIVER, S-9, AROCLOR 1254 (10%), Method: PREINCUBATION inactive; negative | Test System: AMES SALMONELLA TYPHIMURIUM, Strain/Indicator: TA98, Metabolic Activation: NONE, Method: PREINCUBATION inactive; negative | Test System: AMES SALMONELLA TYPHIMURIUM, Strain/Indicator: TA98, Metabolic Activation: NONE, Method: SPOT TEST inactive; negative | Test System: AMES SALMONELLA TYPHIMURIUM, Strain/Indicator: TA98, Metabolic Activation: NONE, Method: STANDARD PLATE inactive; negative | Test System: AMES SALMONELLA TYPHIMURIUM, Strain/Indicator: TA98, Metabolic Activation: RAT, LIVER, S-9, AROCLOR 1254 (10%), Method: PREINCUBATION inactive; negative | Test System: AMES SALMONELLA TYPHIMURIUM, Strain/Indicator: TA98, Metabolic Activation: RAT, LIVER, S-9, NAPHTHOFLAVONE AND PHENOBARBITAL, Method: STANDARD PLATE inactive; negative | Test System: AMES SALMONELLA TYPHIMURIUM, Strain/Indicator: TA98, Metabolic Activation: RAT, LIVER, S-9, PHENOBARBITAL AND NAPHTHOFLAVONE, Method: SPOT TEST inactive; negative | Test System: AMES SALMONELLA TYPHIMURIUM, Strain/Indicator: TA100, Metabolic Activation: HAMSTER, LIVER, S-9, AROCLOR 1254 (10%), Method: PREINCUBATION inactive; negative | Test System: AMES SALMONELLA TYPHIMURIUM, Strain/Indicator: TA100, Metabolic Activation: NONE, Method: PREINCUBATION inactive; negative | Test System: AMES SALMONELLA TYPHIMURIUM, Strain/Indicator: TA100, Metabolic Activation: NONE, Method: SPOT TEST inactive; negative | Test System: AMES SALMONELLA TYPHIMURIUM, Strain/Indicator: TA100, Metabolic Activation: NONE, Method: STANDARD PLATE inactive; negative | Test System: AMES SALMONELLA TYPHIMURIUM, Strain/Indicator: TA100, Metabolic Activation: RAT, LIVER, S-9, AROCLOR 1254 (10%), Method: PREINCUBATION inactive; negative | Test System: AMES SALMONELLA TYPHIMURIUM, Strain/Indicator: TA100, Metabolic Activation: RAT, LIVER, S-9, NAPHTHOFLAVONE AND PHENOBARBITAL, Method: FLUCTUATION TEST inactive; negative | Test System: AMES SALMONELLA TYPHIMURIUM, Strain/Indicator: TA100, Metabolic Activation: RAT, LIVER, S-9, NAPHTHOFLAVONE AND PHENOBARBITAL, Method: STANDARD PLATE inactive; negative | Test System: AMES SALMONELLA TYPHIMURIUM, Strain/Indicator: TA100, Metabolic Activation: RAT, LIVER, S-9, PHENOBARBITAL AND NAPHTHOFLAVONE, Method: SPOT TEST inactive; negative | Test System: AMES SALMONELLA TYPHIMURIUM, Strain/Indicator: TA104, Metabolic Activation: NONE, Method: STANDARD PLATE inactive; negative | Test System: AMES SALMONELLA TYPHIMURIUM, Strain/Indicator: TA104, Metabolic Activation: RAT, LIVER, S-9, NAPHTHOFLAVONE AND PHENOBARBITAL, Method: STANDARD PLATE inactive; negative | Test System: AMES SALMONELLA TYPHIMURIUM, Strain/Indicator: TA1535, Metabolic Activation: HAMSTER, LIVER, S-9, AROCLOR 1254 (10%), Method: PREINCUBATION inactive; negative | Test System: AMES SALMONELLA TYPHIMURIUM, Strain/Indicator: TA1535, Metabolic Activation: NONE, Method: PREINCUBATION inactive; negative | Test System: AMES SALMONELLA TYPHIMURIUM, Strain/Indicator: TA1535, Metabolic Activation: NONE, Method: SPOT TEST inactive; negative | Test System: AMES SALMONELLA TYPHIMURIUM, Strain/Indicator: TA1535, Metabolic Activation: NONE, Method: STANDARD PLATE inactive; negative | Test System: AMES SALMONELLA TYPHIMURIUM, Strain/Indicator: TA1535, Metabolic Activation: RAT, LIVER, S-9, AROCLOR 1254 (10%), Method: PREINCUBATION inactive; negative | Test System: AMES SALMONELLA TYPHIMURIUM, Strain/Indicator: TA1535, Metabolic Activation: RAT, LIVER, S-9, NAPHTHOFLAVONE AND PHENOBARBITAL, Method: PREINCUBATION inactive; negative | Test System: AMES SALMONELLA TYPHIMURIUM, Strain/Indicator: TA1535, Metabolic Activation: RAT, LIVER, S-9, NAPHTHOFLAVONE AND PHENOBARBITAL, Method: STANDARD PLATE inactive; negative | Test System: AMES SALMONELLA TYPHIMURIUM, Strain/Indicator: TA1535, Metabolic Activation: RAT, LIVER, S-9, PHENOBARBITAL AND NAPHTHOFLAVONE, Method: SPOT TEST inactive; negative | Test System: AMES SALMONELLA TYPHIMURIUM, Strain/Indicator: TA1537, Metabolic Activation: HAMSTER, LIVER, S-9, AROCLOR 1254 (10%), Method: PREINCUBATION inactive; negative | Test System: AMES SALMONELLA TYPHIMURIUM, Strain/Indicator: TA1537, Metabolic Activation: NONE, Method: PREINCUBATION inactive; negative | Test System: AMES SALMONELLA TYPHIMURIUM, Strain/Indicator: TA1537, Metabolic Activation: RAT, LIVER, S-9, AROCLOR 1254 (10%), Method: PREINCUBATION inactive; negative | Test System: CHINESE HAMSTER V-79, Strain/Indicator: V-79/OUABAIN, Metabolic Activation: NONE inactive; negative
